Oligonucleotides are given in HELM: sugar(base)linkage, 5' to 3'; d 2'-deoxyribose, r ribose, m 2'-O-methylribose, p phosphate. ss, as = sense and antisense strand
Each substance was assayed against TMEM63B (assay: reporter assay of Huesken 2005). Conditions: siRNA.
Substance “RNA1{r(U)p.r(C)p.r(C)p.r(U)p.r(A)p.r(G)p.r(C)p.r(U)p.r(C)p.r(C)p.r(C)p.r(A)p.r(C)p.r(G)p.r(U)p.r(C)p.r(U)p.r(A)p.r(U)p.d(T)p.d(T)}|RNA2{r(A)p.r(U)p.r(A)p.r(G)p.r(A)p.r(C)p.r(G)p.r(U)p.r(G)p.r(G)p.r(G)p.r(A)p.r(G)p.r(C)p.r(U)p.r(A)p.r(G)p.r(G)p.r(A)p.d(A)p.d(C)}$$$RNA1{StrandType:ss}|RNA2{StrandType:as}$” has a normalised inhibition (eCFP-eYFP dual reporter) of 79.7%. “RNA1{r(G)p.r(G)p.r(G)p.r(U)p.r(U)p.r(C)p.r(C)p.r(U)p.r(A)p.r(G)p.r(C)p.r(U)p.r(C)p.r(C)p.r(C)p.r(A)p.r(C)p.r(G)p.r(U)p.d(T)p.d(T)}|RNA2{r(A)p.r(C)p.r(G)p.r(U)p.r(G)p.r(G)p.r(G)p.r(A)p.r(G)p.r(C)p.r(U)p.r(A)p.r(G)p.r(G)p.r(A)p.r(A)p.r(C)p.r(C)p.r(C)p.d(C)p.d(G)}$$$RNA1{StrandType:ss}|RNA2{StrandType:as}$” gave a normalised inhibition (eCFP-eYFP dual reporter) of 57.9%. For “RNA1{r(U)p.r(C)p.r(A)p.r(U)p.r(G)p.r(A)p.r(C)p.r(C)p.r(U)p.r(A)p.r(C)p.r(A)p.r(G)p.r(U)p.r(A)p.r(U)p.r(C)p.r(A)p.r(C)p.d(T)p.d(T)}|RNA2{r(G)p.r(U)p.r(G)p.r(A)p.r(U)p.r(A)p.r(C)p.r(U)p.r(G)p.r(U)p.r(A)p.r(G)p.r(G)p.r(U)p.r(C)p.r(A)p.r(U)p.r(G)p.r(A)p.d(C)p.d(C)}$$$RNA1{StrandType:ss}|RNA2{StrandType:as}$”, the normalised inhibition (eCFP-eYFP dual reporter) was 60.2%. Substance “RNA1{r(G)p.r(C)p.r(C)p.r(U)p.r(A)p.r(C)p.r(C)p.r(A)p.r(U)p.r(G)p.r(A)p.r(U)p.r(C)p.r(A)p.r(A)p.r(C)p.r(C)p.r(C)p.r(C)p.d(T)p.d(T)}|RNA2{r(G)p.r(G)p.r(G)p.r(G)p.r(U)p.r(U)p.r(G)p.r(A)p.r(U)p.r(C)p.r(A)p.r(U)p.r(G)p.r(G)p.r(U)p.r(A)p.r(G)p.r(G)p.r(C)p.d(A)p.d(C)}$$$RNA1{StrandType:ss}|RNA2{StrandType:as}$” has a normalised inhibition (eCFP-eYFP dual reporter) of 39.6%. “RNA1{r(G)p.r(G)p.r(G)p.r(A)p.r(G)p.r(A)p.r(A)p.r(C)p.r(A)p.r(G)p.r(G)p.r(A)p.r(C)p.r(A)p.r(A)p.r(C)p.r(C)p.r(A)p.r(U)p.d(T)p.d(T)}|RNA2{r(A)p.r(U)p.r(G)p.r(G)p.r(U)p.r(U)p.r(G)p.r(U)p.r(C)p.r(C)p.r(U)p.r(G)p.r(U)p.r(U)p.r(C)p.r(U)p.r(C)p.r(C)p.r(C)p.d(C)p.d(A)}$$$RNA1{StrandType:ss}|RNA2{StrandType:as}$” gave a normalised inhibition (eCFP-eYFP dual reporter) of 65.9%. In the case of “RNA1{r(G)p.r(G)p.r(G)p.r(C)p.r(U)p.r(C)p.r(C)p.r(U)p.r(G)p.r(G)p.r(G)p.r(A)p.r(G)p.r(C)p.r(U)p.r(C)p.r(A)p.r(G)p.r(G)p.d(T)p.d(T)}|RNA2{r(C)p.r(C)p.r(U)p.r(G)p.r(A)p.r(G)p.r(C)p.r(U)p.r(C)p.r(C)p.r(C)p.r(A)p.r(G)p.r(G)p.r(A)p.r(G)p.r(C)p.r(C)p.r(C)p.d(C)p.d(A)}$$$RNA1{StrandType:ss}|RNA2{StrandType:as}$”, the normalised inhibition (eCFP-eYFP dual reporter) is reported as 36.3%. “RNA1{r(U)p.r(G)p.r(C)p.r(C)p.r(A)p.r(C)p.r(C)p.r(C)p.r(G)p.r(A)p.r(C)p.r(G)p.r(C)p.r(C)p.r(C)p.r(U)p.r(C)p.r(A)p.r(C)p.d(T)p.d(T)}|RNA2{r(G)p.r(U)p.r(G)p.r(A)p.r(G)p.r(G)p.r(G)p.r(C)p.r(G)p.r(U)p.r(C)p.r(G)p.r(G)p.r(G)p.r(U)p.r(G)p.r(G)p.r(C)p.r(A)p.d(T)p.d(C)}$$$RNA1{StrandType:ss}|RNA2{StrandType:as}$” gave a normalised inhibition (eCFP-eYFP dual reporter) of 12.7%. In the case of “RNA1{r(G)p.r(C)p.r(A)p.r(C)p.r(A)p.r(U)p.r(C)p.r(A)p.r(U)p.r(C)p.r(G)p.r(G)p.r(G)p.r(C)p.r(U)p.r(G)p.r(C)p.r(U)p.r(G)p.d(T)p.d(T)}|RNA2{r(C)p.r(A)p.r(G)p.r(C)p.r(A)p.r(G)p.r(C)p.r(C)p.r(C)p.r(G)p.r(A)p.r(U)p.r(G)p.r(A)p.r(U)p.r(G)p.r(U)p.r(G)p.r(C)p.d(C)p.d(G)}$$$RNA1{StrandType:ss}|RNA2{StrandType:as}$”, the normalised inhibition (eCFP-eYFP dual reporter) is reported as 69.9%. Work on “RNA1{r(A)p.r(U)p.r(U)p.r(U)p.r(U)p.r(G)p.r(A)p.r(G)p.r(G)p.r(A)p.r(A)p.r(G)p.r(C)p.r(C)p.r(U)p.r(A)p.r(C)p.r(C)p.r(C)p.d(T)p.d(T)}|RNA2{r(G)p.r(G)p.r(G)p.r(U)p.r(A)p.r(G)p.r(G)p.r(C)p.r(U)p.r(U)p.r(C)p.r(C)p.r(U)p.r(C)p.r(A)p.r(A)p.r(A)p.r(A)p.r(U)p.d(G)p.d(C)}$$$RNA1{StrandType:ss}|RNA2{StrandType:as}$” yielded a normalised inhibition (eCFP-eYFP dual reporter) of 27.8%. “RNA1{r(C)p.r(U)p.r(G)p.r(U)p.r(A)p.r(C)p.r(U)p.r(U)p.r(C)p.r(A)p.r(C)p.r(A)p.r(A)p.r(A)p.r(C)p.r(C)p.r(U)p.r(C)p.r(C)p.d(T)p.d(T)}|RNA2{r(G)p.r(G)p.r(A)p.r(G)p.r(G)p.r(U)p.r(U)p.r(U)p.r(G)p.r(U)p.r(G)p.r(A)p.r(A)p.r(G)p.r(U)p.r(A)p.r(C)p.r(A)p.r(G)p.d(C)p.d(T)}$$$RNA1{StrandType:ss}|RNA2{StrandType:as}$” gave a normalised inhibition (eCFP-eYFP dual reporter) of 57.4%. Work on “RNA1{r(C)p.r(U)p.r(U)p.r(C)p.r(U)p.r(U)p.r(U)p.r(U)p.r(C)p.r(C)p.r(A)p.r(C)p.r(C)p.r(A)p.r(U)p.r(G)p.r(C)p.r(G)p.r(C)p.d(T)p.d(T)}|RNA2{r(G)p.r(C)p.r(G)p.r(C)p.r(A)p.r(U)p.r(G)p.r(G)p.r(U)p.r(G)p.r(G)p.r(A)p.r(A)p.r(A)p.r(A)p.r(G)p.r(A)p.r(A)p.r(G)p.d(A)p.d(G)}$$$RNA1{StrandType:ss}|RNA2{StrandType:as}$” yielded a normalised inhibition (eCFP-eYFP dual reporter) of 39.7%. For “RNA1{r(A)p.r(U)p.r(G)p.r(G)p.r(A)p.r(A)p.r(U)p.r(C)p.r(U)p.r(C)p.r(C)p.r(A)p.r(A)p.r(A)p.r(U)p.r(A)p.r(U)p.r(G)p.r(C)p.d(T)p.d(T)}|RNA2{r(G)p.r(C)p.r(A)p.r(U)p.r(A)p.r(U)p.r(U)p.r(U)p.r(G)p.r(G)p.r(A)p.r(G)p.r(A)p.r(U)p.r(U)p.r(C)p.r(C)p.r(A)p.r(U)p.d(T)p.d(G)}$$$RNA1{StrandType:ss}|RNA2{StrandType:as}$”, the normalised inhibition (eCFP-eYFP dual reporter) was 78.7%. “RNA1{r(C)p.r(C)p.r(U)p.r(G)p.r(G)p.r(U)p.r(C)p.r(A)p.r(U)p.r(C)p.r(A)p.r(A)p.r(U)p.r(G)p.r(U)p.r(C)p.r(G)p.r(U)p.r(C)p.d(T)p.d(T)}|RNA2{r(G)p.r(A)p.r(C)p.r(G)p.r(A)p.r(C)p.r(A)p.r(U)p.r(U)p.r(G)p.r(A)p.r(U)p.r(G)p.r(A)p.r(C)p.r(C)p.r(A)p.r(G)p.r(G)p.d(C)p.d(A)}$$$RNA1{StrandType:ss}|RNA2{StrandType:as}$” was tested, and the normalised inhibition (eCFP-eYFP dual reporter) was 60.4%. “RNA1{r(U)p.r(C)p.r(C)p.r(U)p.r(G)p.r(G)p.r(G)p.r(A)p.r(G)p.r(C)p.r(U)p.r(C)p.r(A)p.r(G)p.r(G)p.r(G)p.r(G)p.r(A)p.r(U)p.d(T)p.d(T)}|RNA2{r(A)p.r(U)p.r(C)p.r(C)p.r(C)p.r(C)p.r(U)p.r(G)p.r(A)p.r(G)p.r(C)p.r(U)p.r(C)p.r(C)p.r(C)p.r(A)p.r(G)p.r(G)p.r(A)p.d(G)p.d(C)}$$$RNA1{StrandType:ss}|RNA2{StrandType:as}$” was tested, and the normalised inhibition (eCFP-eYFP dual reporter) was 52%. For “RNA1{r(U)p.r(C)p.r(A)p.r(C)p.r(C)p.r(U)p.r(G)p.r(C)p.r(C)p.r(C)p.r(C)p.r(A)p.r(U)p.r(C)p.r(A)p.r(U)p.r(C)p.r(G)p.r(U)p.d(T)p.d(T)}|RNA2{r(A)p.r(C)p.r(G)p.r(A)p.r(U)p.r(G)p.r(A)p.r(U)p.r(G)p.r(G)p.r(G)p.r(G)p.r(C)p.r(A)p.r(G)p.r(G)p.r(U)p.r(G)p.r(A)p.d(T)p.d(A)}$$$RNA1{StrandType:ss}|RNA2{StrandType:as}$”, the normalised inhibition (eCFP-eYFP dual reporter) was 73%. “RNA1{r(U)p.r(G)p.r(G)p.r(G)p.r(A)p.r(G)p.r(A)p.r(A)p.r(C)p.r(C)p.r(A)p.r(C)p.r(C)p.r(A)p.r(U)p.r(U)p.r(G)p.r(C)p.r(C)p.d(T)p.d(T)}|RNA2{r(G)p.r(G)p.r(C)p.r(A)p.r(A)p.r(U)p.r(G)p.r(G)p.r(U)p.r(G)p.r(G)p.r(U)p.r(U)p.r(C)p.r(U)p.r(C)p.r(C)p.r(C)p.r(A)p.d(A)p.d(A)}$$$RNA1{StrandType:ss}|RNA2{StrandType:as}$” was tested, and the normalised inhibition (eCFP-eYFP dual reporter) was 43.8%. Work on “RNA1{r(C)p.r(G)p.r(U)p.r(G)p.r(U)p.r(U)p.r(A)p.r(C)p.r(A)p.r(A)p.r(C)p.r(G)p.r(U)p.r(G)p.r(G)p.r(C)p.r(U)p.r(C)p.r(G)p.d(T)p.d(T)}|RNA2{r(C)p.r(G)p.r(A)p.r(G)p.r(C)p.r(C)p.r(A)p.r(C)p.r(G)p.r(U)p.r(U)p.r(G)p.r(U)p.r(A)p.r(A)p.r(C)p.r(A)p.r(C)p.r(G)p.d(G)p.d(G)}$$$RNA1{StrandType:ss}|RNA2{StrandType:as}$” yielded a normalised inhibition (eCFP-eYFP dual reporter) of 91.6%. “RNA1{r(C)p.r(A)p.r(G)p.r(C)p.r(U)p.r(C)p.r(C)p.r(G)p.r(U)p.r(U)p.r(G)p.r(A)p.r(C)p.r(U)p.r(U)p.r(U)p.r(G)p.r(A)p.r(C)p.d(T)p.d(T)}|RNA2{r(G)p.r(U)p.r(C)p.r(A)p.r(A)p.r(A)p.r(G)p.r(U)p.r(C)p.r(A)p.r(A)p.r(C)p.r(G)p.r(G)p.r(A)p.r(G)p.r(C)p.r(U)p.r(G)p.d(G)p.d(A)}$$$RNA1{StrandType:ss}|RNA2{StrandType:as}$” was tested, and the normalised inhibition (eCFP-eYFP dual reporter) was 84.4%. Work on “RNA1{r(A)p.r(A)p.r(C)p.r(G)p.r(U)p.r(G)p.r(C)p.r(C)p.r(U)p.r(A)p.r(C)p.r(C)p.r(A)p.r(U)p.r(G)p.r(A)p.r(U)p.r(C)p.r(A)p.d(T)p.d(T)}|RNA2{r(U)p.r(G)p.r(A)p.r(U)p.r(C)p.r(A)p.r(U)p.r(G)p.r(G)p.r(U)p.r(A)p.r(G)p.r(G)p.r(C)p.r(A)p.r(C)p.r(G)p.r(U)p.r(U)p.d(C)p.d(T)}$$$RNA1{StrandType:ss}|RNA2{StrandType:as}$” yielded a normalised inhibition (eCFP-eYFP dual reporter) of 80.1%. “RNA1{r(G)p.r(G)p.r(C)p.r(C)p.r(U)p.r(G)p.r(C)p.r(U)p.r(C)p.r(A)p.r(U)p.r(G)p.r(U)p.r(A)p.r(C)p.r(A)p.r(U)p.r(G)p.r(A)p.d(T)p.d(T)}|RNA2{r(U)p.r(C)p.r(A)p.r(U)p.r(G)p.r(U)p.r(A)p.r(C)p.r(A)p.r(U)p.r(G)p.r(A)p.r(G)p.r(C)p.r(A)p.r(G)p.r(G)p.r(C)p.r(C)p.d(T)p.d(G)}$$$RNA1{StrandType:ss}|RNA2{StrandType:as}$” gave a normalised inhibition (eCFP-eYFP dual reporter) of 71.9%.

Source: the OligoGym collection
Also: test concentration or dose not given here.
